Results taken from US4454120A, “Analgesic dipeptide amides and method of use and compositions thereof” (Sterling Drug Inc., priority 1982, dated 1984).

What was measured:
[1] = tested on: guinea pig ileum longitudinal muscle; assay: Guinea pig ileum test (inhibition of electrically induced twitch); assay type: cell-based; conditions: ratio of IC50 of reference Met5-enkephalin (=100) to IC50 of test compound in the same preparation, averaged, usually N=4
Method: Adult male guinea pigs (Charles River, Hartley strain) weighing 300-500 g. are decapitated, and the terminal ileum is exposed by reflecting the overlying cecum, severed at the ileocecal juncture, and removed while cutting the mesenteric attachments to avoid excessive traction on the tissue. The ileum (about 30 cm. in length) is transferred to a beaker containing warm modified Krebs-Henseleit solution (118 mM sodium chloride, 4.75 mM potassium chloride, 2.54 mM calcium chloride, 1.19 mM potassium dihydrogen phosphate, 1.2 mM magnesium sulfate, 25 mM sodium bicarbonate, 11 mM glucose, 20 μM choline chloride and 0.125 μM pyrilamine maleate). The terminal (aboral) portion (about 10 cm. in length) is discarded, and segments (3-4 cm. in length) are cut from the remainder and gently slid onto a glass rod (5-6 mm. in diameter) and arranged so that the meseneteric attachment is in a straight line. A cotton swab moistened in the solution is then carefully used to separate the longitudinal muscle from the underlying circular muscle. The longitudinal muscle and adhering myenteric plexus is then gently removed from the remaining tissue with forceps.
Strips of this prepared longitudinal muscle are mounted in a double-jacketed organ bath (5 ml.) under tension (1.0 g.), connected to isometric transducers (Grass FT .03), bathed in the modified Krebs-Henseleit solution described above, aerated with oxygen-carbon dioxide (95:5) and maintained at 37° C.
Stimulators (Grass S-44) are set to deliver repetitive monophasic square wave field stimulation (supramaximal voltage, 0.10 Hz., 0.25 msec. duration) through platinum ring electrodes at the top and bottom of the bath. Regular contractions of the muscle, which result from electrically-induced liberation of acetylcholine from postganglionic parasympathetic nerves, are recorded on a polygraph (Grass model 5). Following tissue equilibration (45-60 min.) and repeated washing (every 10 min.) an aqueous solution of a reference or test compound is added to the bath in a microliter volume (1.25-250 μl) and reductions in muscle twitch height are recorded. More compound can be added […] first washing the preparation.
From the results a half-mazimal inhibitory concentration (IC50) value for the compound is computed by regression analysis of a linear plot of logarithm of concentration against percent of inhibition of twitch height (probits). The ratio of the IC50 value of a reference compound to that of a test compound tested in the same preparation is the molar potency ratio. Usually four preparations are tested simultaneously by the same person (N=4), and the resulting four molar potency ratios are averaged.
The following results were obtained using the examples as test compounds and Met^5 -enkephalin as the reference compound.

Male Swiss-Webster mice = assay: Mouse acetylcholine writhing test; assay type: in vivo; conditions: for ED50: Mus musculus, sc, subcutaneous, approximate values
Method: Male Swiss-Webster mice each weighing 18-24 g. are treated subcutaneously (10 ml./kg. injection volume) or orally with the test compound in an aqueous vehicle. Twenty minutes thereafter each mouse is injected intraperitoneally with acetylcholine (3.2 mg./kg.) in aqueous sodium chloride (0.9%). This dose of acetylcholine causes one or more characteristic writhes in the two minute period following injection in control mice which receive the aqueous vehicle not containing the test compound. […] Test compounds are screened at doses of 100 and 30 mg./kg. subcutaneously and 300 and 100 mg./kg. orally using 15 mice at each dose level. ED50 values for active compounds are estimated by probit analysis of quantal scores at four or more dose levels using 15 mice at each dose level.

guinea pig ileum = conditions: cited from earlier work
mouse vas deferens = conditions: cited from earlier work
rat = rat tail flick, relative to morphine, cited from earlier work
opiate receptor = conditions: rat brain membranes, relative to morphine; cited from earlier work

Compound | Average Molar Potency Ratio [1] | further results
CN(CCCc1ccccc1)C(=O)[C@@H](CC[S+](C)[O-])NC(=O)[C@@H](N)Cc1ccc(O)cc1.Cl.O (stereo partly drawn) [Example 4, L-tyrosyl-N-methyl-N-(3-phenylpropyl)-D-methioninamide S-oxide monohydrochloride monohydrate] | 5 | ED50 (Male Swiss-Webster mice): > 30 mg/kg
CSCC[C@H](C(=O)NCCCc1ccccc1)N(C)C(=O)[C@@H](N)Cc1ccc(O)cc1.Cl [Example 7, L-tyrosyl-N^2-methyl-N-(3-phenylpropyl)-D-methioninamide monohydrochloride] | 260 | –
C[C@@H](NC(=O)[C@@H](N)Cc1ccc(O)cc1)C(=O)NCCNCCc1ccccc1 [HTyrD-AlaNH(CH2)2 NH(CH2)2 Phenyl] | – | potency relative to Met-enkephalin (guinea pig ileum): < 1%; potency relative to Met-enkephalin (mouse vas deferens): < 1%
N-methyl-L-tyrosyl-N-(3-phenylpropyl)-D-methioninamide S-oxide monohydrochloride hemihydrate [Example 6] | 360 | –
L-tyrosyl-N-(3-phenylpropyl)-D-serinamide hydrate (3:2) [Example 10] | 15 | –
CSCC[C@@H](NC(=O)[C@@H](N)Cc1ccc(O)cc1)C(=O)NCCCc1ccccc1.Cl.O [Example 1, L-tyrosyl-N-(3-phenylpropyl)-D-methioninamide monohydrochloride monohydrate] | 279 | ED50 (Male Swiss-Webster mice): > 30 mg/kg
Met^5 -enkephalin [reference compound] | 100 | –
CN(C(=O)[C@@H](N)Cc1ccc(O)cc1)[C@H](CC[S+](C)[O-])C(=O)NCCCc1ccccc1.Cl.O (stereo partly drawn) [Example 8, L-tyrosyl-N^2-methyl-N-(3-phenylpropyl)-D-methioninamide S-oxide monhydrochloride monohydrate] | 650 | –
CN[C@@H](Cc1ccc(O)cc1)C(=O)N[C@@H](CCSC)C(=O)NCCCc1ccccc1.Cl.O [Example 5, N-methyl-L-tyrosyl-N-(3-phenylpropyl)-L-methioninamide monohydrochloride hydrate (4:1)] | 180 | 95% confidence limits of subcutaneous ED50 (Male Swiss-Webster mice): 5.0 to 12 mg/kg; subcutaneous ED50 (Male Swiss-Webster mice; acetylcholine 3.2 mg./kg. i.p. 20 min after the compound, probit analysis): 8.5 mg/kg
Cl.NC(=O)CC[C@@H](NC(=O)[C@@H](N)Cc1ccc(O)cc1)C(=O)NCCCc1ccccc1.O [Example 9, L-tyrosyl-N^1-(3-phenylpropyl)-D-glutamamide monohydrochloride hydrate (4:3)] | 47 | –
C[C@@H](NC(=O)[C@@H](N)Cc1ccc(O)cc1)C(N)=O [H-Tyr-D-Ala-NH2] | – | times less potent than morphine, intravenously (rat; intravenous): greater than 10 times; times less potent than morphine, intraventricularly (rat; intraventricular): 200 times; times less affinity than morphine (opiate receptor): 830 times
L-tyrosyl-N-(3-phenylpropyl)-D-methioninamide S-oxide monohydrochloride sesquihydrate [Example 2] | 1180 | –
CSCC[C@@H](NC(=O)[C@@H](N)Cc1ccc(O)cc1)C(=O)N(C)CCCc1ccccc1.Cl [Example 3, L-tyrosyl-N-methyl-N-(3-phenylpropyl)-D-methioninamide monohydrochloride] | 19 | –
